These results are taken from patent US20160193291A1, “METHOD OF REGULATING NEURONAL AXON ELONGATION” (RIKEN, priority 2012, published 2016).

Common to all, as to format: cell-based, chick (Gallus gallus)
Assay [1] deals with growth cones of primary culture DRG neurons. In words: Endocytosis of Alexa Fluor dextran (macropinocytosis) in growth cones.
Assay [2] deals with growth cones of DRG neurons. Description: Growth cone collapse assay (growth cone surface area). Here is the method: Dissociated DRG neurons from embryonic day 7-9 chicks were cultured for at least 12 h in an F-12 medium (Invitrogen) containing 50 ng/ml NGF. […] Subsequently, the culture medium was changed to BSS buffer. […] In experiments using epoxomicin, the cells were treated with […] epoxomicin for 15 min before the addition of […] Sema3A.
The growth cone area was defined as a hand-like region extending from a distal part of a neurite to a growth cone neck whose width is equal to the width of the neurite. The width of each neurite was calculated by measuring the width of the neurite region at a location that was 30 μm apart from the distal part of each neurite. This calculation was adopted because the mean length of the control growth cone was less than 30 μm.

The subject of assay [3] is DRG neurons. In words: Neurite elongation (neurite length) of transfected DRG neurons. Particulars: 15 min pretreatment with 10 μM EIPA.
In assay [4] the test system is Syx1B protein in growth cones. Description: Immunocytochemistry of Syx1B protein in growth cones. Particulars: for protein level of Syx1B normalized to that of SNAP25 in the growth cones: 10 min treatment. As to the method:
After Sema3A or vehicle treatment, the cells were fixed with 4% PFA for 1 h at 37° C., followed by permeabilization with 0.3% Triton X-100 in PBS for 2 min at a room temperature.
The cells were then immediately washed three times with a blocking solution (1% BSA and 0.1% Triton X-100 PBS), followed by incubation with the blocking solution for 1 h at a room temperature, and were then incubated in the presence of anti-Syx1B (0.5 μg/ml) and anti-synaptosomal-associated protein 25 (SNAP25) antibody (1:500 dilution, clone SM-81; Sternberger Monpclonals) for 2 h at a room temperature. Immunofluorescence signals were visualized by incubation with Alexa Fluor 488-labeled donkey anti-rabbit antibody (Invitrogen) and Alexa Fluor 594-labeled donkey anti-mouse antibody (Invitrogen). The integrated fluorescence intensity of Syx1B in the growth cones was normalized to that of the SNAP 25 protein.

[5] abbreviates: 15 min pretreatment with 10 μM EIPA.
Setting [6] is: 15 min pretreatment with 100 μM EIPA.

On to `CCN(c1nc(N)c(C(=O)N=C(N)N)nc1Cl)C(C)C` [EIPA, 5-(N-ethyl-N-isopropyl)amiloride], for which, in assay [1] (setting [5]), the “effect on Sema3A-induced uptake of Alexa Flour 594-dextran” value was “suppressed” and the “effect on Syx1B knockdown-mediated accumulation of Alexa Fluor 594-dextran” value was “reversed”. Besides, the “effect on neurotoxin C1-induced uptake of Alexa Fluor 594-dextran” value in assay [1] (setting [6]) is “blocked”. In assay [2] (setting [5]), the “effect on Sema3A-induced growth cone collapse” value is on record as “suppressed” and the “effect on Syx1B knockdown-mediated growth cone collapse” value is reported as “reversed”. Further, the “effect on neurotoxin C1-induced reduction in growth cone surface area” value in assay [2] (setting [6]) is given as “blocked”. Further, the “effect on Syx1B knockdown-mediated reduced neurite elongation” value in assay [3] is “reversed”.

Consider `O=c1cc(N2CCOCC2)oc2c(-c3ccccc3)cccc12` [LY294002, 2-(4-morpholinyl)-8-phenyl-1 (4H)-benzopyran-4-one], for which the “macropinocytosis in the growth cones” value in assay [1] (10 min LY294002 treatment) is reported as “induced macropinocytosis”. The growth cone area result in assay [2] (10 min LY294002 treatment) is listed as “induced reduction in growth cone area”. Besides, in assay [4], the “protein level of Syx1B normalized to that of SNAP25 in the growth cones” value is “significantly reduced”.

As for `CC[C@H](C)[C@H](NC(=O)[C@H]([C@@H](C)CC)N(C)C(C)=O)C(=O)N[C@H](C(=O)N[C@@H](CC(C)C)C(=O)[C@@]1(C)CO1)[C@@H](C)O` [epoxomicin], in assay [4] (1 μM epoxomicin), the “effect on Sema3A-induced suppression of Syx1B” value is on record as “suppressed”.

Take `C/C1=C\[C@H](C)C[C@H](C)OC(=O)C[C@H](c2ccc(O)cc2)NC(=O)[C@@H](Cc2c(Br)[nH]c3ccccc23)N(C)C(=O)[C@H](C)NC(=O)[C@@H](C)C1` [jasplakinolide]: in assay [2], the growth cone morphology entry was “induces growth cone collapse-like morphological changes”. The “protein level of Syx1B normalized to that of SNAP25 in the growth cones” value in assay [4] was “not decreased”.
